Data reported in paper PMC9133015 (Nature Communications, 2022).
Values joined by “and” are separate entries in the source; they are usually repeats but may differ in a detail not shown here. Equal entries are not always repeated.

Legend:
[1] = system: PC-3 cells; assay: Cell growth assay (5-day course); type: cell-based, human; conditions: for optical density / Relative proliferation rate mean / Relative proliferation rate: PC-3; for optical density / Relative proliferation rate: replicates
[2] = system: PC-3 cells; assay: Colony formation assay; type: cell-based, human; conditions: replicates
[3] = system: 22Rv1 cells; assay: Migration assay (transwell); type: cell-based, human; conditions: for Cell migration (cell number): replicates
[4] = system: DU145 cells; assay: Migration assay (transwell); type: cell-based, human; conditions: for Cell migration (cell number): replicates
[5] = system: PC-3 cells; assay: Migration assay (transwell); type: cell-based, human; conditions: for Cell migration (cell number): PC-3, replicates
[6] = system: 22Rv1 cells; assay: Apoptosis assay (Annexin V-APC/PI flow cytometry); type: cell-based, human; conditions: for Apoptosis (%): replicates
[7] = system: DU145 cells; assay: Apoptosis assay (Annexin V-APC/PI flow cytometry); type: cell-based, human; conditions: for Apoptosis (%): replicates
[8] = system: PC-3 cells; assay: Apoptosis assay (Annexin V-APC/PI flow cytometry); type: cell-based, human; conditions: for Apoptosis (%): PC-3, replicates
[9] = system: PC-3 xenograft; assay: In vivo antitumor activity, PC-3 xenograft mouse model; parameters: species or system BALB/c nude mice; conditions: for body weight (Figure S10b): 100 mg/kg (block headed at r39); for tumor volume (Figure S10a): 100 mg/kg, in mm³ (unit assumed); for tumor weight (Figure S10c): individual mice

`CCN1CCN(C(=O)c2ccc(Nc3ncc(F)c(-c4ccc5nc(N(C)C)sc5c4)n3)nc2)CC1` [YK-2-69] was tested, and the optical density ([1]; 2 µM, day 4) was 1.548 and 1.523 and 1.538, the “Relative proliferation rate mean” value ([1]; 4 µM, day 0) was 1 and the Relative proliferation rate ([1]; 4 µM, day 0) was 1. The optical density ([1]; 4 µM, day 0) was 0.274, the “Relative proliferation rate mean” value ([1]; 4 µM, day 1) was 1.161 and the Relative proliferation rate ([1]; 4 µM, day 1) was 1.103 and 1.191 (2×). For the same molecule, the optical density ([1]; 4 µM, day 1) was 0.302 and 0.326 (2×), the “Relative proliferation rate mean” value ([1]; 4 µM, day 2) was 1.646 and the Relative proliferation rate ([1]; 4 µM, day 2) was 1.545 and 1.706 and 1.687. For the same molecule, the optical density ([1]; 4 µM, day 2) was 0.423 and 0.467 and 0.462, the “Relative proliferation rate mean” value ([1]; 4 µM, day 3) was 1.9905 and the Relative proliferation rate ([1]; 4 µM, day 3) was 2.023 and 1.947 and 2.001. For the same molecule, the optical density ([1]; 4 µM, day 3) was 0.554 and 0.533 and 0.548, the “Relative proliferation rate mean” value ([1]; 4 µM, day 4) was 3.8824 and the Relative proliferation rate ([1]; 4 µM, day 4) was 3.992 and 3.985 and 3.671. The optical density ([1]; 4 µM, day 4) was 1.093 and 1.091 and 1.005, the “cell proliferation, 5-day course/colony (in words)” value ([1]; PC-3 cells, dose-dependent) was “significantly inhibited the cell proliferation” and the “Colony formation (cell number)” value ([2]; 1 µM) was 40 cell number and 45 cell number and 35 cell number. For the same molecule, the “Colony formation (cell number)” value ([2]; 2 µM) was 10 cell number and 12 cell number and 9 cell number, the “Colony formation (cell number)” value ([2]; 4 µM) was 5 cell number and 6 cell number and the “Cell migration (cell number)” value ([3]; 22Rv1, 0.5 μM) was 1803 cell number and 1758 cell number and 1920 cell number. The “Cell migration (cell number)” value ([3]; 22Rv1, 1 μM) was 710 cell number and 690 cell number and 736 cell number, the “Cell migration (cell number)” value ([3]; 22Rv1, 2 μM) was 422 cell number and 380 cell number and 416 cell number and the “migration (in words)” value ([3]; 22Rv1 cells, dose-dependent) was “remarkably inhibited the migration and invasion”. The “Cell migration (cell number)” value ([4]; DU145, 2 μM) was 3879 cell number and 3920 cell number and 3723 cell number, the “Cell migration (cell number)” value ([4]; DU145, 4 μM) was 2567 cell number and 2678 cell number and 2788 cell number and the “Cell migration (cell number)” value ([4]; DU145, 8 μM) was 1578 cell number and 1677 cell number and 1723 cell number. The “migration (in words)” value ([4]; DU145 cells, dose-dependent) was “remarkably inhibited the migration and invasion”, the “Cell migration (cell number)” value ([5]; 1 µM) was 189 cell number and 176 cell number and 199 cell number and the “Cell migration (cell number)” value ([5]; 2 µM) was 110 cell number and 105 cell number and 98 cell number. The “Cell migration (cell number)” value ([5]; 4 µM) was 69 cell number and 65 cell number and 74 cell number, the “migration (in words)” value ([5]; PC-3 cells, dose-dependent) was “remarkably inhibited the migration and invasion” and the “Apoptosis (%)” value ([6]; 22Rv1, 0.5 μM) was 10.56% and 11.41% and 12.03%. The “Apoptosis (%)” value ([6]; 22Rv1, 1 μM) was 18.52% and 20.96% and 19.24%, the “Apoptosis (%)” value ([6]; 22Rv1, 2 μM) was 26.56% and 24.71% and 24.31% and the “apoptosis (in words)” value ([6]; 22Rv1 cells, concentration-dependent) was “significant increase of the apoptotic cell population”. The “Apoptosis (%)” value ([7]; DU145, 2 μM) was 9.32% and 10.11% and 8.62%, the “Apoptosis (%)” value ([7]; DU145, 4 μM) was 11.15% and 12.55% and 13.62% and the “Apoptosis (%)” value ([7]; DU145, 8 μM) was 26.62% and 31.08% and 30.25%. For the same molecule, the “apoptosis (in words)” value ([7]; DU145 cells, concentration-dependent) was “significant increase of the apoptotic cell population”, the “Apoptosis (%)” value ([8]; 0.5 µM) was 5.98% and 6.29% and 6.68% and the “Apoptosis (%)” value ([8]; 1 µM) was 7.85% and 8.04% and 8.54%. For the same molecule, the “Apoptosis (%)” value ([8]; 2 µM) was 12.28% and 13.62% and 14.23%, the “apoptosis (in words)” value ([8]; PC-3 cells, concentration-dependent) was “significant increase of the apoptotic cell population” and the “body weight (Figure S10b)” value ([9]; day 1, individual mice) was 19.2 (2×) and 18.5 and 18.7 and 18.4 and 18.1 and 19.9 and 20.5. The “body weight (Figure S10b)” value ([9]; day 3, individual mice, in g (unit assumed)) was 19.3 and 18.8 and 19.1 and 19.6 and 18.7 and 18.5 and 20.2 and 21, the “body weight (Figure S10b)” value ([9]; day 5, individual mice, in g (unit assumed)) was 19.6 and 19.3 and 19.5 and 20 and 19 and 18.8 and 20.4 and 21.3 and the “body weight (Figure S10b)” value ([9]; day 7, individual mice) was 19.7 and 19.2 (2×) and 19.8 and 20.2 and 19.1 and 20.7 and 21.6. For the same molecule, the “body weight (Figure S10b)” value ([9]; day 9, individual mice) was 19.9 and 19.6 (2×) and 20.3 and 20.4 and 19.2 and 21.1 and 22.1, the “body weight (Figure S10b)” value ([9]; day 11, individual mice, in g (unit assumed)) was 20.2 and 19.8 and 20.6 and 20.7 and 19.9 and 19.6 and 21.5 and 22.4 and the “body weight (Figure S10b)” value ([9]; day 13, individual mice, in g (unit assumed)) was 20.7 and 20.1 and 20.9 and 21 and 20.2 and 19.9 and 22 and 22.7. For the same molecule, the “body weight (Figure S10b)” value ([9]; day 15, individual mice, in g (unit assumed)) was 21.2 and 20.6 and 21.3 and 21.4 and 20.5 and 20.2 and 22.4 and 23.1, the “body weight (Figure S10b)” value ([9]; day 17, individual mice) was 21.5 (2×) and 20.9 and 21.7 and 20.7 and 20.5 and 22.6 and 23.4 and the “body weight (Figure S10b)” value ([9]; day 19, individual mice) was 21.6 and 21.3 and 22.1 and 21.8 and 20.9 (2×) and 22.9 and 23.6. The “body weight (Figure S10b)” value ([9]; day 21, individual mice, in g (unit assumed)) was 21.9 and 21.7 and 22.5 and 22 and 21.1 and 20.9 and 23.3 and 24.1, the “body weight (Figure S10b)” value ([9]; day 23, individual mice, in g (unit assumed)) was 22.2 and 21.9 and 22.8 and 22.5 and 21.6 and 21.2 and 23.7 and 24.4 and the “body weight (Figure S10b)” value ([9]; day 25, individual mice, in g (unit assumed)) was 22.4 and 22.2 and 23 and 22.9. The “tumor volume (Figure S10a)” value ([9]; day 1, individual mice) was 77.4864 and 92.5301 and 97.1283 and 101.268 and 98.0398 and 97.468 and 73.886 and 80.3144, the “tumor volume (Figure S10a)” value ([9]; day 3, individual mice) was 115.765 and 144.425 and 170.933 and 124.316 and 162.987 and 146.332 and 130.957 and 150.238 and the “tumor volume (Figure S10a)” value ([9]; day 5, individual mice) was 154.192 and 209.47 and 269.793 and 167.67 and 219.907 and 205.492 and 169.178 and 227.654. The “tumor volume (Figure S10a)” value ([9]; day 7, individual mice) was 219.658 and 275.568 and 365.875 and 209.513 and 299.159 and 296.64 and 231.386 and 330.578, the “tumor volume (Figure S10a)” value ([9]; day 9, individual mice) was 329.162 and 379.473 and 478.428 and 304.962 and 429.596 and 486.382 and 340.579 and 484.285 and the “tumor volume (Figure S10a)” value ([9]; day 11, individual mice) was 425.31 and 450.313 and 557.222 and 355.841 and 497.266 and 558.451 and 389.654 and 598.443. The “tumor volume (Figure S10a)” value ([9]; day 13, individual mice) was 470.277 and 505.24 and 614.643 and 398.947 and 552.456 and 554.825 and 438.407 and 647.336, the “tumor volume (Figure S10a)” value ([9]; day 15, individual mice) was 505.825 and 567.155 and 666.998 and 434.631 and 595.348 and 608.437 and 469.076 and 655.028 and the “tumor volume (Figure S10a)” value ([9]; day 17, individual mice) was 566.789 and 632.783 and 710.893 and 478.638 and 663.313 and 687.885 and 541.191 and 725.155. For the same molecule, the “tumor volume (Figure S10a)” value ([9]; day 19, individual mice) was 626.915 and 695.75 and 762.842 and 529.26 and 724.582 and 714.002 and 593.545 and 775.769, the “tumor volume (Figure S10a)” value ([9]; day 21, individual mice) was 664.022 and 757.202 and 792.305 and 567.096 and 783.549 and 751.035 and 675.845 and 837.844 and the “tumor volume (Figure S10a)” value ([9]; day 23, individual mice) was 712.611 and 799.725 and 853.619 and 600.587 and 832.37 and 731.016 and 739.798 and 963.73. The “tumor volume (Figure S10a)” value ([9]; day 25, individual mice) was 761.381 and 859.669 and 897.54 and 641.932, the “tumor weight (Figure S10c)” value ([9]; High dose, in g (unit assumed)) was 0.61 and 0.52 and 0.5 and 0.55 and 0.62 and 0.53 and 0.74 and 0.7 and the “tumor weight (Figure S10c)” value ([9]; Low dose, in g (unit assumed)) was 0.79 and 0.89 and 1.1 and 0.91 and 0.71 and 0.92 and 0.81 and 0.88. For the same molecule, the “tumor growth (in words)” value ([9]; PC-3 xenograft, 100 or 200 mg/kg orally every day) was “significantly inhibited tumor growth” and the “tumor volume (in words)” value ([9]; PC-3 xenograft, high dose (200 mg/kg)) was “decrease tumor volume”.
